# From ChEMBL document CHEMBL4725284, “Junceellolide B, a novel inhibitor of Hepatitis B virus” (Bioorg Med Chem, 2020)
# Assays:
# [1] = tested on: Hepatitis B virus; experiment: Antiviral activity against HBV infected in human HepAD38 cells assessed as inhibition of viral DNA at 10 uM incubated for 4 days by SYBR green dye based RT-PCR analysis relative to control; type: functional; settings: HePAD38, 96 h, time 4 day
# [2] = Cytotoxicity against human HePAD38 cells assessed as cell viability incubated for 72 hrs by MTT assay; type: cell-based
# [3] = Cytotoxicity against human HepG2 cells assessed as cell viability incubated for 72 hrs by MTT assay; type: cell-based
SMILES,inhibition at 10 µM [1] [%],CC50 at 72 h [2] [µM],CC50 at 72 h [3] [µM]
C=C1/C=C/[C@H](OC(=O)CC)[C@@]2(C)[C@@H](OC(C)=O)[C@@H](OC(C)=O)C[C@]3(CO3)[C@@H]2[C@H](OC(C)=O)[C@]2(O)[C@@H](C)C(=O)O[C@H]2[C@H]1Cl,0,> 100,> 100
C=C1CC[C@H](OC(C)=O)[C@]2(C)[C@@H](OC(C)=O)C[C@@]3(O)O[C@@]4([C@H](C=C3CO)OC(=O)[C@@H]4C)[C@@H](OC(C)=O)[C@@H]12,0,> 100,> 100
C=C1CC[C@H](OC(C)=O)[C@@]2(C)[C@H]1[C@H](OC(C)=O)[C@@]13O[C@@H](C(=C)[C@H](Cl)[C@@H]1OC(=O)[C@@H]3C)[C@@H](O)[C@@H]2OC(C)=O,10,> 100,> 100
C=C1CC[C@H](OC(C)=O)[C@]2(C)[C@@H](OC(C)=O)C[C@@H](OC(C)=O)/C(COC(C)=O)=C\[C@@H]3OC(=O)[C@H](C)[C@@]3(O)[C@@H](OC(C)=O)[C@@H]12,0,> 100,> 100
C=C1CC[C@H](OC(=O)CC(C)C)[C@]2(C)[C@@H](OC(C)=O)C[C@@H](OC(C)=O)/C(C)=C\[C@@H]3OC(=O)[C@H](C)[C@@]3(O)[C@@H](OC(C)=O)[C@@H]12,0,> 100,> 100
CC(=O)OCC1=C/[C@@H]2OC(=O)[C@H](C)[C@@]2(O)[C@@H](OC(C)=O)[C@H]2[C@]3(CC[C@H](OC(C)=O)[C@]2(C)[C@@H](OC(C)=O)/C=C\1)CO3,0,> 100,> 100
C=C1[C@H](Cl)[C@@H]2OC(=O)[C@H](C)[C@]23O[C@@H]1[C@@H](O)[C@H](OC(C)=O)[C@@]1(C)[C@@H](OC(C)=O)[C@@H](OC(C)=O)C[C@]2(CO2)[C@@H]1[C@@H]3OC(C)=O,31,> 100,> 100
C=C1CC[C@H](OC(C)=O)[C@]2(C)[C@@H](OC(C)=O)/C=C/[C@]3(CO3)[C@H](Cl)[C@@H]3OC(=O)[C@H](C)[C@@]3(O)[C@@H](OC(C)=O)[C@@H]12,0,> 100,> 100
C=C1CC[C@H](OC(C)=O)[C@]2(C)[C@@H](OC(C)=O)C[C@@H](O)/C(C)=C\[C@@H]3OC(=O)[C@H](C)[C@@]3(O)[C@@H](OC(C)=O)[C@@H]12,12,> 100,> 100
C=C1[C@H](Cl)[C@@H]2OC(=O)[C@H](C)[C@]23O[C@]1(O)C[C@H](OC(C)=O)[C@@]1(C)[C@@H](OC(C)=O)CC[C@]2(CO2)[C@@H]1[C@@H]3OC(C)=O,4,> 100,> 100
C=C1CC[C@H](OC(C)=O)[C@@]2(C)[C@H]1[C@H](OC(C)=O)[C@@]13O[C@@H](C(=C)[C@H](Cl)[C@@H]1OC(=O)[C@@H]3C)[C@@H](OC(C)=O)[C@@H]2OC(C)=O,27,> 100,> 100
C=C1C[C@H](OC(C)=O)[C@H](OC(C)=O)[C@@]2(C)[C@H]1[C@H](OC(C)=O)[C@@]13O[C@@H](C(=C)[C@H](Cl)[C@@H]1OC(=O)[C@@H]3C)[C@@H](O)[C@@H]2OC(C)=O,0,> 100,> 100
C=C1[C@H](OC(C)=O)C[C@H](OC(C)=O)[C@@]2(C)[C@@H](OC(C)=O)CC[C@]3(CO3)[C@@H]2[C@H](OC(C)=O)[C@]2(O)[C@@H](C)C(=O)O[C@H]2[C@H]1Cl,39,> 100,> 100
C=C1CC[C@H](OC(C)=O)[C@]2(C)[C@@H](OC(C)=O)C[C@@H](OC(C)=O)/C(C)=C\[C@@H]3OC(=O)[C@H](C)[C@@]3(O)[C@@H](OC(C)=O)[C@@H]12,31,> 100,> 100
C=C1CC[C@H](OC(C)=O)[C@]2(C)[C@@H](OC(C)=O)C[C@@]3(O)O[C@]4([C@@H](C)C(=O)O[C@H]4[C@@H](Cl)C3=C)[C@@H](OC(C)=O)[C@@H]12,40,> 100,> 100
CC(=O)OCC1=C/[C@@H]2OC(=O)[C@H](C)[C@@]2(O)[C@@H](OC(C)=O)[C@H]2[C@]3(CC[C@H](OC(C)=O)[C@]2(C)[C@@H](OC(=O)COC(=O)CC(C)C)/C=C\1)CO3,0,> 100,> 100
C=C1CC[C@H](OC(C)=O)[C@]2(C)[C@@H](OC(C)=O)C[C@@H](OC(C)=O)/C(CCl)=C\[C@@H]3OC(=O)[C@H](C)[C@@]3(O)[C@@H](OC(C)=O)[C@@H]12,0,> 100,> 100
C=C1[C@H](Cl)[C@@H]2OC(=O)[C@H](C)[C@]23O[C@@H]1[C@@H](O)[C@H](OC(C)=O)[C@@]1(C)[C@@H](OC(C)=O)CC[C@]2(CO2)[C@@H]1[C@@H]3OC(C)=O,0,> 100,> 100

SMILES,inhibition at 10 µM [1] [%],CC50 at 72 h [2] [µM],CC50 at 72 h [3] [µM]
C=C1C[C@H](OC(C)=O)[C@H](OC(C)=O)[C@]2(C)[C@@H](OC(C)=O)/C=C/C(=C)[C@H](Cl)[C@@H]3OC(=O)[C@H](C)[C@@]3(O)[C@@H](OC(C)=O)[C@@H]12 [FRAJUNOLIDE H],25,> 100,> 100
C=C1[C@@H](OC(C)=O)C[C@H](OC(C)=O)[C@]2(C)[C@@H](OC(C)=O)C[C@@H](OC(C)=O)/C(C)=C\[C@@H]3OC(=O)[C@H](C)[C@@]3(O)[C@@H](OC(C)=O)[C@@H]12,0,> 100,> 100
C=C1CC[C@H](OC(C)=O)[C@]2(C)[C@@H](OC(C)=O)C[C@@H](OC(C)=O)/C(C(=O)OC)=C\[C@@H]3OC(=O)[C@H](C)[C@@]3(O)[C@@H](OC(C)=O)[C@@H]12,1,> 100,> 100
C=C1[C@H](OC(C)=O)C[C@H](OC(=O)CC)[C@@]2(C)[C@@H](OC(C)=O)CC[C@]3(CO3)[C@@H]2[C@H](OC(C)=O)[C@]2(O)[C@@H](C)C(=O)O[C@H]2[C@H]1Cl,0,> 100,> 100
C=C1/C=C/[C@H](OC(C)=O)[C@@]2(C)[C@@H](OC(C)=O)C[C@H](OC(C)=O)[C@]3(CO3)[C@@H]2[C@H](OC(C)=O)[C@]2(O)[C@@H](C)C(=O)O[C@H]2[C@H]1Cl,1,> 100,> 100
C=C1/C=C\[C@H](OC(=O)COC(C)=O)[C@@]2(C)[C@@H](OC(C)=O)CC[C@]3(CO3)[C@@H]2[C@H](OC(C)=O)[C@]2(O)[C@@H](C)C(=O)O[C@H]2[C@H]1Cl,0,> 100,> 100
Nc1ccn([C@@H]2CS[C@H](CO)O2)c(=O)n1 [LAMIVUDINE],70,–,–
C=C1[C@H]2O[C@H]2[C@H](OC(C)=O)[C@@]2(C)[C@@H](OC(C)=O)CC[C@]3(CO3)[C@@H]2[C@H](OC(C)=O)[C@]2(O)[C@@H](C)C(=O)O[C@H]2[C@H]1Cl,29,> 100,> 100
C=C1/C=C\[C@H](OC(=O)COC(=O)CC(C)C)[C@@]2(C)[C@@H](OC(C)=O)CC[C@]3(CO3)[C@@H]2[C@H](OC(C)=O)[C@]2(O)[C@@H](C)C(=O)O[C@H]2[C@H]1Cl [FRAJUNOLIDE G],0,> 100,> 100
C=C1/C=C\[C@H](OC(C)=O)[C@@]2(C)[C@@H](OC(C)=O)CC[C@]3(CO3)[C@@H]2[C@H](OC(C)=O)[C@]2(O)[C@@H](C)C(=O)O[C@H]2[C@H]1Cl,0,> 100,> 100
C=C1/C=C/[C@H](OC(C)=O)[C@@]2(C)[C@@H](OC(C)=O)[C@@H](OC(C)=O)C[C@]3(CO3)[C@@H]2[C@H](OC(C)=O)[C@]2(O)[C@@H](C)C(=O)O[C@H]2[C@H]1Cl [FRAJUNOLIDE I],41,> 100,> 100
C=C1CC[C@H](OC(C)=O)[C@]2(C)[C@@H](OC(C)=O)C[C@@H](OC(C)=O)C(=C)[C@H](Cl)[C@@H]3OC(=O)[C@H](C)[C@@]3(O)[C@@H](OC(C)=O)[C@@H]12,63,> 100,> 100
C=C1CC[C@H](OC(C)=O)[C@]2(C)[C@@H](OC(C)=O)C[C@@H](OC(C)=O)/C(CO)=C\[C@@H]3OC(=O)[C@H](C)[C@@]3(O)[C@@H](OC(C)=O)[C@@H]12,0,> 100,> 100
C=C1CC[C@H](OC(C)=O)[C@]2(C)[C@@H](OC(C)=O)/C=C/C(COC(C)=O)=C\[C@@H]3OC(=O)[C@H](C)[C@@]3(O)[C@@H](OC(C)=O)[C@@H]12,0,> 100,> 100
C=C1[C@H](Cl)[C@@H]2OC(=O)[C@H](C)[C@]23O[C@@H]1[C@@H](OC(C)=O)[C@H](OC(C)=O)[C@@]1(C)[C@@H](OC(C)=O)CC[C@]2(CO2)[C@@H]1[C@@H]3OC(C)=O,17,> 100,> 100
C=C1CC[C@H](OC(C)=O)[C@]2(C)[C@@H](OC(=O)COC(C)=O)/C=C\C(=C)[C@H](Cl)[C@@H]3OC(=O)[C@H](C)[C@@]3(O)[C@@H](OC(C)=O)[C@@H]12,6,> 100,> 100
"CC(=O)O[C@H]1CC[C@]2(CO2)[C@@H]2[C@H](OC(C)=O)[C@@]3(O)[C@H](/C=C(/C)[C@H](OC(C)=O)C[C@H](OC(C)=O)[C@@]12C)OC(=O)[C@@H]3C [11ALPHA,20ALPHA-EPOXYJUNCEELLOLIDE]",3,> 100,> 100
